Measured values: paper PMC12655351, “Synthesis and Anticancer Activity Evaluation of New 5-((5-Nitrofuran-2-yl)allylidene)-2-thioxo-4-thiazolidinones” (Pharmaceuticals, 2025)

Tests used:
[1] = test system: IGROV1; settings: human, 48 h
[2] = test system: caspase-3 in MCF-7 cells; assay: caspase-3 ELISA; type: cell-based, human; settings: MCF-7, 1 μM, 24 h
Protocol: To confirm the activity of the caspase pathway, an effector caspase-3 was assayed on MCF-7 and MDA-MB-231 cell lines after 24 h of treatment using the ELISA method. Novel 4-thiazolidinone derivatives were tested in concentrations of 1 and 5 μM for the MCF-7 cell line and 5 and 10 μM for the MDA-MB-231 cell line.
Using a SimpleStep ELISA kit (Abcam, Cambridge, UK), we determined the levels of cytochrome C and caspase-3 in cells’ lysates with 2b, 12b, and 14b (1 and 5 μM for the MCF-7 cell line and 5 and 10 μM for the MDA-MB-231) and doxorubicin in concentrations of 1 and 5 μM for both lines after 24 h incubation. Assays were performed according to the manufacturer’s protocols.

[3] = test system: HOP-92; settings: human, 48 h
[4] = test system: Bax protein in MCF-7 cells; assay: anti-Bax antibody flow cytometry; type: cell-based, human; settings: MCF-7, 5 μM, 24 h
Protocol: (§1) The effect of the tested compounds on the intrinsic mitochondrial pathway of programmed cell death was further assessed. For this purpose, the concentration of the proapoptotic Bax protein from the Bcl-2 family was examined. The concentration of this protein was analyzed in breast cancer cells after treatment with novel compounds at concentrations of 1 and 5 µM for the MCF-7 line and 5 and 10 µM for the MDA-MB-231 line.
(§2) An anti-Bax FITC-conjugated antibody was applied to evaluate the effect of tested compounds on the concentration of Bax protein in this experiment. First, MCF-7 and MDA-MB-231 cells were seeded into 6-well plates at 5 × 10^5 cells per well. Test compounds 2b, 12b, and 14b were then added at concentrations of 1 and 5 µM and 5 and 10 µM for MCF-7 and MDA-MB-231, respectively. The concentration of doxorubicin as a reference compound was 1 and 5 µM for both lines. After 24 h of incubation, cells were harvested, centrifuged, washed with 1 mL of PBS, and then fixed with 4% paraformaldehyde for 15 min at RT. After removal of the paraformaldehyde, cells were washed with PBS, then resuspended in 0.5 mL of cold 90% methanol, and frozen at −20 °C. […] The prepared samples were read immediately using the BD FACS Canto II flow cytometer (Becton Dickinson Biosciences, San Jose, CA, USA).

[5] = test system: Bax protein in MDA-MB-231 cells; assay: anti-Bax antibody flow cytometry; type: cell-based, human; settings: MDA-MB-231, concentration not stated (5 or 10 µM), 24 h
Protocol: as §1, §2

## O=C(O)CCCN1C(=O)/C(=C/C=C/c2ccc([N+](=O)[O-])o2)SC1=S [13b, 4-((Z)-5-((E)-3-(5-Nitrofuran-2-yl)allylidene)-4-oxo-2-thioxothiazolidin-3-yl)butanoic acid]
[1]
  CC50: 7.77 µM

## O=C(O)CCCCCN1C(=O)/C(=C/C=C/c2ccc([N+](=O)[O-])o2)SC1=S [14b, 6-((Z)-5-((E)-3-(5-nitrofuran-2-yl)allylidene)-4-oxo-2-thioxothiazolidin-3-yl)hexanoic acid]
[2]
  change of caspase-3 concentration: statistically significant result
[3]
  CC50: 5.84 µM
[4]
  Bax-positive cell population: 14.67%

## CC(C(=O)O)N1C(=O)/C(=C/C=C/c2ccc([N+](=O)[O-])o2)SC1=S (centres unmarked) [2b, 2-((Z)-5-((E)-3-(5-Nitrofuran-2-yl)allylidene)-4-oxo-2-thioxothiazolidin-3-yl)propanoic acid]
[5]
  Bax-positive cell population: 26.33%
